In US10588893B2, “Ointment containing an oxazole compound” (OTSUKA PHARMACEUTICAL CO., LTD., priority 2015, dated 2020):

What was measured:
[1] = Solubility of compound (11) in various solvents; type: physicochemical
Source text: (§1) To select a solvent for dissolving compound (11) in preparing an ointment containing compound (11), the solubility of compound (11) in various solvents was studied. […] Such a case may result in precipitation of compound (11). Thus, a solvent that has a high solubility of compound (11) but that has […] miscibility (compatibility) with petrolatum or paraffin is relatively preferable for use.

[2] = Miscibility of compound (11) solvent solution with petrolatum; type: physicochemical
Source text: as §1

## CCOc1ccccc1C(=O)NCc1coc(-c2ccc(OC(F)F)c(OC(C)C)c2)n1 [Compound (11)]
[1]; in triacetin and propylene carbonate
  solubility of compound (11), in words: relatively high
[1]; solvent: Decyl oleate
  Solubility (W/W %): 2.6 W/W %
[1]; solvent: Diethyl sebacate
  Solubility (W/W %): 42.6 W/W %
[1]; solvent: Diisopropyl adipate
  Solubility (W/W %): 40.3 W/W %
[1]; solvent: Hexyldodecanol
  Solubility (W/W %): 5.4 W/W %
[1]; solvent: Isopropyl myristate
  Solubility (W/W %): 6.0 W/W %
[1]; solvent: Isostearic acid
  Solubility (W/W %): 19.8 W/W %
[1]; solvent: Isostearyl alcohol
  Solubility (W/W %): 5.1 W/W %
[1]; solvent: Liquid Paraffin
  Solubility (W/W %): 0.1 W/W %
[1]; solvent: Olive oil
  Solubility (W/W %): 6.1 W/W %
[1]; solvent: Propylene carbonate
  Solubility (W/W %): 56.9 W/W %
[1]; solvent: Triacetine
  Solubility (W/W %): 32.5 W/W %
[2]; solvent: Decyl oleate
  Miscibility of Compound (11) Solvent Solution with Petrolatum: Miscible
[2]; solvent: Diethyl sebacate
  Miscibility of Compound (11) Solvent Solution with Petrolatum: Miscible
[2]; solvent: Diisopropyl adipate
  Miscibility of Compound (11) Solvent Solution with Petrolatum: Miscible
[2]; solvent: Hexyldodecanol
  Miscibility of Compound (11) Solvent Solution with Petrolatum: Miscible
[2]; solvent: Isopropyl myristate
  Miscibility of Compound (11) Solvent Solution with Petrolatum: Miscible
[2]; solvent: Isostearic acid
  Miscibility of Compound (11) Solvent Solution with Petrolatum: Miscible
[2]; solvent: Isostearyl alcohol
  Miscibility of Compound (11) Solvent Solution with Petrolatum: Miscible
[2]; solvent: Liquid Paraffin
  Miscibility of Compound (11) Solvent Solution with Petrolatum: Miscible
[2]; solvent: Olive oil
  Miscibility of Compound (11) Solvent Solution with Petrolatum: Miscible
[2]; solvent: Propylene carbonate
  Miscibility of Compound (11) Solvent Solution with Petrolatum: Immiscible
[2]; solvent: Triacetine
  Miscibility of Compound (11) Solvent Solution with Petrolatum: Immiscible
